Results as given in US12247004B2, “2-amino-N-(amino-oxo-aryl-lambda6-sulfanylidene)acetamide compounds and their therapeutic use” (Oxford Drug Design Limited, priority 2019, dated 2025).
Converted amounts (≈) assume the structure as drawn. Read-outs that look alike come from different tables or passages of the source.

What was measured:
[1] = system: E. coli UT189; assay: Efficacy in a murine model of urinary tract infection (microbial burden in urine, bladder, kidney); format: in vivo; conditions: Experiment 2, mouse UTI
Method: All animal studies were performed under UK Home Office License PA67E0BAA (protocol E9 for UTI model) with local ethical committee clearance. All studies were performed by technicians who have completed parts A, B and C of the UK Home Office Personal License course and hold current personal licenses. All experiments were performed in dedicated Biohazard 2 facilities (the site holds a Certificate of Designation). Female mice used in these studies were supplied by Janvier laboratories and were specific pathogen free. The strain of mouse used was C3H/HeNRj, which is a well characterized inbred strain. Mice were 16-20 g on receipt and were allowed to acclimatize for at least 7 days prior to any intervention. Five days prior to infection mice were transferred onto drinking water containing 5% glucose. […] It was stored at 4° C. between doses. Test articles were prepared by solubilising in water for injection, taking the salt correction factor into account. […] Mice (n=6 per group) were infected by directly administering 0.05 mL of inoculum via the urethra into the bladder under parenteral anaesthesia. Drinking water was withheld two hours pre-infection and bladders were emptied prior to infection. Once infected, infection catheters were left in the urinary tract for 10 minutes to reduce the risk of the organism flowing back out. The mice were monitored at a frequency appropriate for their clinical condition. Mouse weights were recorded at least once daily both to ensure animals remained within ethical limits and to monitor efficacy of treatment. Twenty-four hours post infection, urine was collected from pre-treatment animals and used to assess the infection level. Urine samples were quantitatively cultured onto MacConkey's agar plates and incubated at 37° C. for 24 hours before colonies were counted. In addition, five mice were euthanised by pentobarbitone overdose to provide a 24 hour pre-treatment control group. Forty-eight hours post-infection, urine was collected from all mice. Seventy-two hours post infection, the clinical condition and body weight of all remaining animals was assessed and urine samples were collected. Animals were then euthanised by pentobarbitone overdose and kidneys and bladders were removed and weighed. Tissue samples were homogenized using a Precellys 24 dual bead beater in 2 mL ice cold sterile phosphate buffered saline. Homogenates and urine samples were quantitatively cultured onto MacConkey's agar plates and incubated at 37° C. for 24 hours before colonies were counted. Data Analysis The data from the culture burdens were analysed using appropriate non-parametric statistical models (Kruskal-Wallis using Conover-Inman to make all pairwise comparisons between groups) with StatsDirect software, and compared to pretreatment and vehicle controls.

[2] = system: bacteria (ATCC reference strains); assay: Antibacterial activity, MIC by broth micro-dilution (CLSI)
[3] = target: Leucyl-tRNA synthetase (LeuRS) (Escherichia coli (strain K12), UniProt P07813); assay: Leucyl-tRNA synthetase enzyme inhibition (AMP-Glo; single point % inhibition at 100 μM and IC50); format: biochemical
[4] = target: Isoleucyl-tRNA synthetase (IleRS) (Escherichia coli (strain K12), UniProt P00956); assay: Isoleucyl-tRNA synthetase enzyme inhibition (AMP-Glo; single point % inhibition at 100 μM and IC50); format: biochemical; conditions: E. coli IleRS; read-out: Enzyme Inhibition - IC50, E. coli IleRS
Source text: Study 1—Enzyme Inhibition
The aminoacylation reaction catalyzed by aminoacyl-tRNA synthetases (aaRS) takes place in two steps. In the first step, aaRS activates its cognate amino acid with ATP; and in the second step the activated amino acid is loaded to its corresponding tRNA. This reaction can be summarized as follows: aaRS+aa+ATP=aaRS-aa-AMP+PPi aaRS-aa-AMP+tRNA=aa-tRNA+AMP+aaRS […]
wherein: aaRS, aminoacyl-tRNA synthetase; aa, amino acid; aaRS-aa-AMP, enzyme-bound to aminoacyl-adenylate; AMP, adenosine monophosphate; aa-tRNA, aminoacyl-tRNA, PPi, inorganic pyrophosphate.
Isoleucyl-tRNA Synthetase a. Single Point Percentage Inhibition
The activity of the pathogenic aaRSs was monitored by measuring AMP production using the commercial kit AMP-Glo (Promega, Madison, USA).
Ligand stock solutions were prepared in 100% DMSO at 10 mM concentration. An assay buffer consisting of 100 mM Tris HCl pH 7.6, 40 mM MgCl, 20 mM KCl and 150 mM NaCl was prepared in dH2O. An enzyme solution containing 51.77 μM IleRS was prepared in assay buffer to provide 30 nM final assay concentration and 75 nM reservoir concentration for a 1:2.5 dilution in the assay. A substrate solution was also prepared in assay buffer with 50 mM L-isoleucine, 10 mM ATP and 100 mg/mL tRNA. A final assay concentration of 500 μM L-isoleucine, 5 μM ATP and 1 mg/mL tRNA and reservoir concentration of 833.33 μM L-isoleucine, 8.33 μM ATP and 1.67 mg/mL tRNA was used for a 1:1.66 dilution in assay.
Enzyme percentage inhibition values were recorded in triplicate at a single point concentration of 100 μM.
Using the same enzymatic assay in a 384-well plate format, ten point concentration response curves were generated for each compound using a top concentration of 100 μM. The known inhibitor, IleAMS was used as a positive control for the IleRS assay. 100% DMSO was used as a negative control. The IC50 was calculated based on non-linear regression analysis.

[5] = Human cell viability / cytotoxicity (CellTiter-Glo, 24 hours); format: cell-based; conditions: human, HepG2 cells (ATCC HB-8065); HepG2 ATCC HB-8065, 24 hours; read-out: Cytotoxicity in HepG2 ATCC HB-8065 Cell Line, IC50
Procedure, shortened: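 HepG2 cells (15,000/well, MEM with 1% NEAA and 1% pyruvate) were grown 2 days, then exposed to compounds in duplicate for 24 h at 1.28% DMSO. Viability was read as ATP by CellTiter-Glo luminescence relative to DMSO-only wells. IC50 is in μg/mL.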

[6] = system: E. coli ATCC 25922; assay: Efficacy in a murine model of disseminated infection (microbial burden in blood, kidney, spleen); format: in vivo; conditions: mouse; 30 mg/kg sc once at 1 hr post-infection; harvest 5 hr
[7] = Acinetobacter baumannii, read-out: Antibacterial Activity (MIC), E = A. baumannii B1931
[8] = Enterobacter cloacae, read-out: Antibacterial Activity (MIC), B = Enterobacter cloacae B1966
[9] = Escherichia coli, ATCC25922, read-out: Antibacterial Activity (MIC), A = E. coli ATCC 25922
[10] = Klebsiella pneumoniae, ATCC700603, read-out: Antibacterial Activity (MIC), C = K. pneumoniae ATCC 700603
[11] = Pseudomonas aeruginosa, ATCC27853, read-out: Antibacterial Activity (MIC), D = P. aeruginosa ATCC 27853
[12] = 10 mg/kg/dose iv at 24, 36, 48 and 60 hr

Sequence of Isoleucyl-tRNA synthetase (IleRS) (P00956 whole entry, looked up): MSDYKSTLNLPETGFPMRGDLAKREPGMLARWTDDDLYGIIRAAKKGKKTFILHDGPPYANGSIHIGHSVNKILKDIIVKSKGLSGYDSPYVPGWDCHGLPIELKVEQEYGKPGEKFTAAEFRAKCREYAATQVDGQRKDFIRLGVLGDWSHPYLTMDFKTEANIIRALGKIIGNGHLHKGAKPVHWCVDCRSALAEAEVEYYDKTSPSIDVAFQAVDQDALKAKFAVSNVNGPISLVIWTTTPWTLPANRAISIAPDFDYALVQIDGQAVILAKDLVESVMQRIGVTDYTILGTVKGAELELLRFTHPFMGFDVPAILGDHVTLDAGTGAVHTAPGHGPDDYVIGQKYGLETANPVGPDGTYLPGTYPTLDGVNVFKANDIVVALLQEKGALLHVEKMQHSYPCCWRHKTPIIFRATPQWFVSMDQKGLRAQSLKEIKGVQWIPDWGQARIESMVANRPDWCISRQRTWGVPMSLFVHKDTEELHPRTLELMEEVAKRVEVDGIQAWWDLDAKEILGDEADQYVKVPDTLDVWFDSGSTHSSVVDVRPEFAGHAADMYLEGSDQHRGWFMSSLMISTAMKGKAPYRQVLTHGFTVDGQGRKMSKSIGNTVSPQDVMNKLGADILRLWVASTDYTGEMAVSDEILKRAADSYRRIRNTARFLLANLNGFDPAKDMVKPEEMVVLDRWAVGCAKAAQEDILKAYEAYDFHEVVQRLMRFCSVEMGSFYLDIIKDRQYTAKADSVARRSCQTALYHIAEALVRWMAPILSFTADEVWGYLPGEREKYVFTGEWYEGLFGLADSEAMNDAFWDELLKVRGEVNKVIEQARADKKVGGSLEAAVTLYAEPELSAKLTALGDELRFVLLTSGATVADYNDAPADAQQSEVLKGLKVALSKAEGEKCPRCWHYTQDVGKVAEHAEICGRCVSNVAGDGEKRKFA
Sequence of Leucyl-tRNA synthetase (LeuRS) (P07813 whole entry, looked up): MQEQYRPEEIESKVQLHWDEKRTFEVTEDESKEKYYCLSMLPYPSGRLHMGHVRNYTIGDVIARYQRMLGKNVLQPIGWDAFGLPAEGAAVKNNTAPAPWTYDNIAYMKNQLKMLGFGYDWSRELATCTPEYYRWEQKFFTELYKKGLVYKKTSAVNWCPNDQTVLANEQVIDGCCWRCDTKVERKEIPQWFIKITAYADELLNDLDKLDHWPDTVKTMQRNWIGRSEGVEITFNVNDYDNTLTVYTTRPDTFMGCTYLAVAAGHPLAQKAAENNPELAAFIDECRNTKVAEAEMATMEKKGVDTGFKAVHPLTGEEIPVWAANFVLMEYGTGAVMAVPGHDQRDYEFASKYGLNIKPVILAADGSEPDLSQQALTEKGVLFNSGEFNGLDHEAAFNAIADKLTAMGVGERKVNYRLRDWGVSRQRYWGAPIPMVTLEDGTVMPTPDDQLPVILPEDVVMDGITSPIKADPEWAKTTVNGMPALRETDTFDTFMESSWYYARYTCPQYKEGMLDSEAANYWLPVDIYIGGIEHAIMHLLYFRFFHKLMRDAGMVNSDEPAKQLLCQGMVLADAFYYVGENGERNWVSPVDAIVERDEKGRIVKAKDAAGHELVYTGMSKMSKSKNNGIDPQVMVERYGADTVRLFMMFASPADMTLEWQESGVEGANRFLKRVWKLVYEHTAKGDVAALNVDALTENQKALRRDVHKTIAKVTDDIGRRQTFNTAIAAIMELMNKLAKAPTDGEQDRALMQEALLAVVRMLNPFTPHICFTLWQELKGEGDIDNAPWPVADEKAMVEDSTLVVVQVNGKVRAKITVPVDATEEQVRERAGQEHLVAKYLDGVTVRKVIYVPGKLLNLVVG

CC(C)C[C@H](N)C(=O)N=[S@](N)(=O)c1cc(Cl)cs1.Cl [ANASIA-124-1]
Reduction in burden from vehicle control, Bladder 72 hr ([1]; 15 mg/kg/dose sc every 4 hours): 1.24 Log10 cfu/g or mL | Reduction in burden from vehicle control, Kidney 72 hr ([1]; 15 mg/kg/dose sc every 4 hours): 1.60 Log10 cfu/g or mL | Reduction in burden from vehicle control, Urine 48 hr ([1]; 15 mg/kg/dose sc every 4 hours): 0.71 Log10 cfu/g or mL | Reduction in burden from vehicle control, Urine 72 hr ([1]; 15 mg/kg/dose sc every 4 hours): 0.66 Log10 cfu/g or mL | Reduction in burden from vehicle control, Bladder 72 hr ([1]; 45 mg/kg/dose sc every 4 hours): 1.38 Log10 cfu/g or mL | Reduction in burden from vehicle control, Kidney 72 hr ([1]; 45 mg/kg/dose sc every 4 hours): 2.40 Log10 cfu/g or mL | Reduction in burden from vehicle control, Urine 48 hr ([1]; 45 mg/kg/dose sc every 4 hours): 1.85 Log10 cfu/g or mL | Reduction in burden from vehicle control, Urine 72 hr ([1]; 45 mg/kg/dose sc every 4 hours): 1.21 Log10 cfu/g or mL | MIC [2, 7]: 8 µg/mL | MIC [2, 8]: 8 µg/mL | MIC [2, 9]: 0.25 µg/mL | MIC ([2]; Escherichia coli, BAA2469, read-out: Antibacterial Activity (MIC), G = E. coli BAA-2469): 1.59 µg/mL | MIC [2, 10]: 16 µg/mL | MIC [2, 11]: 32 µg/mL | IC50 [3]: 21.3 nM

CC[C@H](C)[C@H](N)C(=O)N=S(N)(=O)c1cc2sccc2s1 (stereo partly drawn) [ANASIA-138]
IC50 [4]: 383 nM | MIC [2, 7]: > 64 µg/mL | MIC [2, 8]: > 64 µg/mL | MIC [2, 9]: > 64 µg/mL | MIC ([2]; Haemophilus influenzae, ATCC49247, read-out: Antibacterial Activity (MIC), F = H. influenzae ATCC 49247): 16 µg/mL (≈ 48.3 µM) | MIC [2, 10]: > 64 µg/mL | MIC [2, 11]: > 64 µg/mL | IC50 at 24 h [5]: > 64 µg/mL

O=C(O)c1cn(C2CC2)c2cc(N3CCNCC3)c(F)cc2c1=O [Cinprofloxacin]
Reduction in burden from vehicle control, Bladder 72 hr [1, 12]: 2.74 Log10 cfu/g or mL | Reduction in burden from vehicle control, Kidney 72 hr [1, 12]: 4.12 Log10 cfu/g or mL | Reduction in burden from vehicle control, Urine 48 hr [1, 12]: 5.32 Log10 cfu/g or mL | Reduction in burden from vehicle control, Urine 72 hr [1, 12]: 4.76 Log10 cfu/g or mL

CN(C)c1cc(NC(=O)CNC(C)(C)C)c(O)c2c1C[C@H]1C[C@H]3[C@H](N(C)C)C(O)=C(C(N)=O)C(=O)[C@@]3(O)C(O)=C1C2=O [Tigecycline, tigecycline, reference compound]
Reduction in burden from vehicle control, Blood [6]: 5.13 Log10 cfu/g or mL | Reduction in burden from vehicle control, Kidney [6]: 5.62 Log10 cfu/g or mL | Reduction in burden from vehicle control, Spleen [6]: 5.15 Log10 cfu/g or mL
